These results are taken from patent US12031989B2, “Preparing live microbial samples and microorganisms for subsequent mass spectrometric measurement and evaluation” (Bruker Daltonics GmbH & Co. KG, priority 2016, dated 2024).

Test [1] concerns Klebsiella pneumoniae meropenem-sensitive strain. The experiment in a line: resistance/sensitivity test directly on MALDI-TOF MS sample support, meropenem-sensitive strain. The format is cell-based. The text has this: The antibiotic (for example an antibiotic solution in a liquid nutrient medium) can be mixed with a microorganism suspension either in a cultivation vessel or directly on a spot of a MALDI-TOF MS support 12 (hatched droplet 14*). In addition, this is generally accompanied by a growth control on a different section of the MALDI-TOF MS support, i.e. a cultivation of the microorganism suspension in a nutrient medium without the addition of an antibiotic (unhatched droplet 14). It is preferable for a very small quantity of the suspension to be applied to the spots; for example 1-10 microliters. The sensitivity test thus takes place in microdroplets 14, 14*, preferably with a volume of around 4-8 microliters. The use of even smaller volumes is also possible in principle, for example in the form of nanodroplets. […]
In the example shown, the MALDI-TOF MS support 12 with the test solution is subsequently cultured in a so-called “humidity chamber” 16 in an incubator at high humidity. […] A small quantity of liquid can be put in the humidity chamber 16, for example 0.1 to 5 milliliters of water or NaCl solution to humidify the atmosphere in the chamber 16 and thus set a high ambient humidity (nearly 100%) so that the evaporation of the droplets of nutrient medium 14, 14* themselves is prevented. […]

Test [2] concerns Klebsiella pneumoniae meropenem-resistant strain. The experiment in a line: resistance/sensitivity test directly on MALDI-TOF MS sample support, meropenem-resistant strain. It is filed as cell-based. The text has this: The antibiotic (for example an antibiotic solution in a liquid nutrient medium) can be mixed with a microorganism suspension either in a cultivation vessel or directly on a spot of a MALDI-TOF MS support 12 (hatched droplet 14*). In addition, this is generally accompanied by a growth control on a different section of the MALDI-TOF MS support, i.e. a cultivation of the microorganism suspension in a nutrient medium without the addition of an antibiotic (unhatched droplet 14). It is preferable for a very small quantity of the suspension to be applied to the spots; for example 1-10 microliters. The sensitivity test thus takes place in microdroplets 14, 14*, preferably with a volume of around 4-8 microliters. The use of even smaller volumes is also possible in principle, for example in the form of nanodroplets. The initial microorganism concentration in the droplets 14, 14* can be slightly below the detection limit of a conventional MALDI time-of-flight mass spectrometer with linear flight path, and thus amount to around 5×10^5 cfu per milliliter, for example (cfu—colony forming unit). FIG. 3A.
In the example shown, the MALDI-TOF MS support 12 with the test solution is subsequently cultured in a so-called “humidity chamber” 16 in an incubator at high humidity. The purpose of the humidity chamber 16 is to prevent the droplets 14, 14* from evaporating prematurely during the incubation, and it can take the form of a box with a lid, made of plastic, for example, into which the MALDI-TOF MS support can easily be placed. […] A small quantity of liquid can be put in the humidity chamber 16, for example 0.1 to 5 milliliters of water or NaCl solution to humidify the atmosphere in the chamber 16 and thus set a high ambient humidity (nearly 100%) so that the evaporation of the droplets of nutrient medium 14, 14* themselves is prevented. FIG. 3B.
In the droplets 14, 14*, a high concentration of the microorganisms in a small volume of liquid is rapidly achieved during incubation (as long as the growth is not inhibited by antimicrobial substances). […]

Setting [3] is: 2 micrograms per milliliter, 6 microliter droplet, four hours incubation, MALDI Biotyper evaluation.

Regarding `C[C@@H](O)[C@H]1C(=O)N2C(C(=O)O)=C(S[C@@H]3CN[C@H](C(=O)N(C)C)C3)[C@H](C)[C@H]12` [meropenem], the “bacterial growth in the presence of meropenem (specific mass signal signatures vs growth control)” value is “cannot multiply (or scarcely)” in test [1] (setting [3]) and “not inhibited” in test [2] (setting [3]). Further, the relative growth in test [1] (droplet sizes 2, 4, 6, 8 and 10 microliters, significant growth threshold 0.4, FIG. 4B) was less than 0.4; in test [2] (droplet sizes 2, 6, 8 and 10 microliters, significant growth threshold 0.4, FIG. 4B), “greater than 0.4”. The “relative growth, median” value in test [2] (4 microliter droplet, measurements occasionally below threshold, FIG. 4B) is on record as “greater than 0.4”.
